Assay [1] has as its system HFD-fed mice. Briefly: Insulin tolerance test (ITT) in HFD-fed mice. The assay is classed as in vivo. Particulars: after 9 wks of HFD (FIG. 2A) and 20 wks of FAT diet (FIG. 2B), insulin 0.75 U/kg i.p., adjusted on percentage of fat mass gained. The procedure:
(§1) C57BL/6 Ido-1−/− mice were from the Jackson Laboratory. Seven week-old Bl6 and Idoko male mice were subjected to HFD containing 60% fat during 20 weeks.
Insulin tolerance tests (ITT) was performed in mice food deprived 5 h prior intraperitoneal injection of insulin (0.75 U/kg). Blood was sampled from the tail vein at 0, 5, 15, 30, 60 and 120 min in order to assay glucose concentration (glucometer, France).
We next examined the effect of Ido deficiency or inhibition on glucose homeostasis in HFD-fed mice. To this end, we performed insulin tolerance tests (ITT) on Bl6, Idoko mice and Ido inhibitor (L-1 methyl tryptophan, L-1MT)-treated mice after 9 wks or 20 wks of HFD.

For assay [2], the system named is HFD-fed mice. Briefly: Oral glucose tolerance test (OGTT) with HOMA-IR index in HFD-fed mice. The format is in vivo. The note with it: after 9 or 20 wks of HFD, normalized to fat mass (FIG. 3), versus Bl6 mice. The method, then:
as §1
The oral glucose tolerance test was performed in mice food deprived for overnight prior to an oral administration of 3 g/kg glucose. Blood was sampled from the tail vein at 0, 5, 15, 30, 60 and 120 min in order to assay glucose concentration (glucometer, France). Plasma insulin concentration was measured using ELISA kit (Crystal Chem Inc., Downers Grove, Ill., USA). HOMA-IR in mice was calculated using the equation (fasting glucose concentration×fasting insulin concentration)/405).
Moreover, the insulin resistance index (HOMA-IR) was lower in Ido KO mice or L1MT-treated mice after 9 or 20 wks of HFD (FIG. 3).

SMILES strings stand for the structures.

Consider 1 compound from patent US11752131B2, “Methods and pharmaceutical compositions for the treatment of obesity” (INSERM (Institut National de la Sante et de la Recherche …, priority 2016, dated 2023).

On to `Cn1cc(C[C@H](N)C(=O)O)c2ccccc21` [L-1MT, L-1 methyl tryptophan], for which, in the assay on HFD-fed mice [1], the “insulin sensitivity in insulin tolerance test (ITT) versus Bl6 mice” value was “more insulin sensitive”. For the same compound, in the assay on HFD-fed mice [2], the “insulin resistance index (HOMA-IR)” value was “lower”.
